In data set [1] the test system is L. amazonensis promastigotes. Nature of the data set: Cell membrane integrity (PI, flow cytometry). It is filed as cell-based, Leishmania amazonensis. Conditions: positive control, 40 μM, 5 min. The procedure: Promastigotes at 1 × 10^6 parasites mL^−1 treated with BT‐1 for 24 h were incubated with 0.2 μg mL^−1 PI for 10 min. As a positive control, 40 μM digitonin was used. The data acquisition and analysis were performed using a FACSCalibur flow cytometer (BD Biosciences, Franklin Lakes, NJ, USA) equipped with CellQuest software. A total of 10,000 events were acquired in the region that corresponded to the parasites. Alterations in PI fluorescence were quantified as the percentage increase in fluorescence compared with the untreated parasites (Lazarin‐Bidóia et al. [2013]).
A general note: A flow cytometer gives signals particle by particle.

The nature of data set [2]: Cytotoxicity assay in macrophages (MTT). It is filed as cell-based. The following applies: mouse, J774A.1 macrophages, pH 7.2. As for the experimental part: L. amazonensis MHOM/BR/75/Josefa strain was originally isolated from a human case of CL by Dr. Cesar A. Cuba at the University of Brasilia, Brazil (Saraiva et al. [1983]; Cuba et al. [1985]). Promastigote forms of this strain were maintained axenically in Warren's medium (brain–heart infusion plus hemin and folic acid; pH 7.2) supplemented with 10% heat‐inactivated FBS and maintained at 25°C. J774A.1 macrophages (obtained from the Cell Bank of Rio de Janeiro, RJ, Brazil) were maintained in RPMI‐1640 medium (pH 7.2), supplemented with sodium bicarbonate, L‐glutamine, 10% FBS, and streptomycin and penicillin at 37°C in a 5% CO2 atmosphere.
Cytotoxicity was evaluated in the J774A.1 macrophages. Macrophages (5 × 10^5 cells mL^−1) were cultured in 96‐well microplates containing RPMI‐1640 medium supplemented with 10% FBS. The plates were incubated at 37°C in a 5% CO2 atmosphere for confluent growth of the cells. After 24 h, the compounds were added to each well at increasing concentrations (31.25–1000 μM) and incubated for 48 h at 37°C in a 5% CO2 atmosphere. The cytotoxicity was evaluated by MTT (2 mg mL^−1), as previously described (Mosmann [1983]). Absorbance was read in a microplate spectrophotometer (PowerWave XS; BioTek, […], VT, USA) at 570 nm.

The subject of data set [3] is L. amazonensis promastigote forms. Nature of the data set: Antiproliferative assay (XTT). It is filed as cell-based, Leishmania amazonensis. The following applies: for IC50: Leishmania amazonensis, 72 h, 25°C, XTT, read-out: L. amazonensis (promastigotes) IC50; for Selectivity index (SI): ratio between the CC50 (J774A.1 macrophages) and IC50 (promastigotes). As for the experimental part:
L. amazonensis MHOM/BR/75/Josefa strain was originally isolated from a human case of CL by Dr. […]. Cuba at the University of Brasilia, Brazil (Saraiva et al. [1983]; Cuba et al. [1985]). […] The activity against promastigotes was evaluated by XTT (0.5 mg mL^-1), as previously described (Meshulam et al. [1995]). Absorbance was read in a microplate spectrophotometer (PowerWave XS; BioTek, Winooski, VT, USA) at 450 nm.
(In general: Formazan colour is commonly taken as a measure of viable cells.)

Data set [4] relates to L. amazonensis promastigotes. In words: Cell size (FSC-H, flow cytometry). It is filed as cell-based, Leishmania amazonensis. Set-up: reduction in cell size: dose or concentration left out as unconfirmed. The following applies: positive control, 24 h. As for the experimental part:
Promastigotes at 1 × 10^6 parasites mL^−1 treated with BT‐1 for 24 h were washed twice and resuspended in phosphate‐buffered saline (PBS), then analyzed using a FACSCalibur flow cytometer (BD Biosciences, Franklin Lakes, NJ, USA) equipped with CellQuest software. As a positive control, […] actinomycin D was used. A total of 10,000 events were acquired in the region that corresponded to the parasites. Histograms were generated for each sample, where the forward light scatter (FSC‐H) represents the cell volume (Lazarin‐Bidóia et al. [2013]).

For data set [5], the system named is L. amazonensis promastigotes. In words: Lipid peroxidation assay (DPPP). Type of data set: cell-based, Leishmania amazonensis. The following applies: positive control, 50 μM. The procedure:
Promastigotes at 1 × 10^6 parasites mL^−1 treated with BT‐1 for 24 h were incubated with 50 μM DPPP for 15 min at 22°C. As a positive control, 50 μM H2O2 was used. The fluorescence was determined in a Victor X3 spectrofluorimeter (PerkinElmer, Waltham, MA, USA) at λex of 355 nm and λem of 460 nm. DPPP is essentially nonfluorescent until it is oxidized to a phosphine oxide (DPPP‐O) by peroxides (Okimoto et al. [2000]).

In data set [6] the test system is L. amazonensis promastigotes. In words: Reactive oxygen species production (H2DCFDA). Type of data set: cell-based, Leishmania amazonensis. The following applies: positive control, 50 μM. The procedure:
Promastigotes at 1 × 10^6 parasites mL^−1 treated with BT‐1 for 24 h were incubated with 10 μM H2DCFDA in the dark for 45 min. As a positive control, 50 μM H2O2 was used. The fluorescence was determined by oxidation of H2DCFDA to the fluorescent product, 2′‐7ʹ dichlorofluorescein (DCF), which was measured in a Victor X3 spectrofluorimeter (PerkinElmer, Waltham, MA, USA) at λex of 488 nm and λem of 530 nm (Shukla et al. [2012]).

Data set [7] has as its system L. amazonensis promastigotes. Nature of the data set: Mitochondrial membrane potential (Rh123, flow cytometry). It is filed as cell-based, Leishmania amazonensis. The following applies: 24 h. As for the experimental part: Promastigotes at 1 × 10^6 parasites mL^−1 treated with BT‐1 for 24 h were incubated with 5 μg mL^−1 Rh123, a fluorescent probe that accumulates in mitochondria, for 15 min (Menna‐Barreto, Corrêa, et al. [2009]; Menna‐Barreto, Goncalves, et al. [2009]). As a positive control, 100 μM CCCP was used. The data acquisition and analysis were performed using a FACSCalibur flow cytometer (BD Biosciences, Franklin Lakes, NJ, USA) equipped with CellQuest software. A total of 10,000 events were acquired in the region corresponding to the parasites.

Data set [8] concerns L. amazonensis promastigotes. Nature of the data set: Cell cycle (PI-RNAse A, flow cytometry). Type of data set: cell-based, Leishmania amazonensis. The following applies: positive control, 40 μM, 24 h. The procedure:
Promastigotes at 1 × 10^6 parasites mL^−1 treated with BT‐1 for 24 h were fixed in 70% cold methanol in PBS at 4°C for 2 h. Afterward, the parasites were washed in PBS, 10 μg mL^−1 PI‐RNAse A was added, and the samples were incubated at 37°C for 45 min. The data acquisition and analysis were performed using a FACSCalibur flow cytometer (BD Biosciences, Franklin Lakes, NJ, USA) equipped with CellQuest software. A total of 10,000 events were acquired in the region that corresponded to the parasites. As a positive control, 40 μM miltefosine was used. The percentages of cells in each stage of the cell cycle were determined based on the intensity of the PI fluorescence, which is directly proportional to the DNA content.

*1 amine or outer side, *2 acyl side, *3 side chain or, on linkers, in order; H or OH if unused. Where a SMILES comes first, the peptide text is derived from it. Bridges are numbered along the chain shown (N, C = ends). Roman numbers before positions name the chains, in order. [ ]: non-standard residue; d: D form. Actinocin(9to1) = Cc1c2oc3c(C)ccc(C(=O)[*:1])c3nc-2c(C(=O)[*:2])c(N)c1=O; NMeV = CN[C@H](C(=O)O)C(C)C; Sar = CNCC(=O)O

Take `C[C@@H]1CC[C@@]2(OC1)O[C@H]1[C@@H](O)[C@H]3[C@@H]4CC[C@H]5C[C@@H](O[C@@H]6O[C@H](CO)[C@H](O[C@@H]7O[C@H](CO)[C@@H](O)[C@H](O[C@@H]8OC[C@@H](O)[C@H](O)[C@H]8O)[C@H]7O[C@@H]7O[C@H](CO)[C@H](O)[C@H](O[C@@H]8O[C@H](CO)[C@@H](O)[C@H](O)[C@H]8O)[C@H]7O)[C@H](O)[C@H]6O)[C@H](O)C[C@]5(C)[C@H]4CC[C@]3(C)[C@H]1[C@@H]2C` [Digitonin, digitonin, reference compound]: the “increase of PI-stained cells” value in data set [1] was 3.10 fold.

What is called CC50 is the concentration at which the toxic effect on the cells reaches its halfway point. A word on the IC50: it is the midpoint of a concentration-inhibition curve. In turn, `CC(C)(O)C#Cc1ccc(-c2ccc(C=NC3CCCCC3)s2)s1` [Compound 3c] had a CC50 at 48 h in data set [2] of 238.5 ± 1.9 µM. In addition, in data set [3], the IC50 was found to be 40.1 ± 1.1 µM and the “Selectivity index (SI)” value was found to be 5.95.

In the case of `NC(=S)NN=Cc1ccc(-c2ccc(C#CCCO)s2)s1` [Compound 2d], in data set [2], the CC50 at 48 h was found to be 224 ± 4.9 µM. Also, in data set [3], the 50% inhibitory concentration (IC50) amounted to 41.4 ± 0.6 µM and the “Selectivity index (SI)” value came to 5.42.

The compound `OCCC#Cc1ccc(-c2ccc(C=NC3CCCCC3)s2)s1` [Compound 2c] gave a CC50 at 48 h in data set [2] of 271 ± 2.8 µM. In data set [3], the IC50 was 51.2 ± 1.5 µM and the “Selectivity index (SI)” value was determined as 5.28.

Take `CC(C)N=Cc1ccc(-c2ccc(C#CCCO)s2)s1` [Compound 2a]: the CC50 at 48 h in data set [2] was 289 ± 6.5 µM. For the same compound, in data set [3], the IC50 turned out to be 44.1 ± 2 µM and the “Selectivity index (SI)” value was 6.56.

The compound `CCCCN=Cc1ccc(-c2ccc(C#CC(C)(C)O)s2)s1` [Compound 3b] returned a CC50 at 48 h in data set [2] of 296 ± 4.1 µM. Further, in data set [3], the IC50 is 55.3 ± 5.1 µM and the “Selectivity index (SI)” value is 5.34.

`Cc1c2oc3c(C)ccc(C(=O)N[C@@H]4C(=O)N[C@H](C(C)C)C(=O)N5CCC[C@H]5C(=O)N(C)CC(=O)N(C)[C@@H](C(C)C)C(=O)O[C@@H]4C)c3nc-2c(C(=O)N[C@@H]2C(=O)N[C@H](C(C)C)C(=O)N3CCC[C@H]3C(=O)N(C)CC(=O)N(C)[C@@H](C(C)C)C(=O)O[C@@H]2C)c(N)c1=O` [Actinomycin D, reference compound] (I: T[dV]P[Sar][NMeV] / II: T[dV]P[Sar][NMeV]; ester I:1-I:C, II:1-II:C; linker I:N-II:N via Actinocin(9to1)): the “reduction in cell size” value in data set [4] came to 2.05 fold.

Compound `CC(C)(O)C#Cc1ccc(-c2ccc(C=O)s2)s1` [Compound 3, 5′‐(3‐hydroxy‐3‐methyl‐but‐1‐ynyl)‐[2,2′]bithiophenyl‐5‐carbaldehyde] had a CC50 at 48 h in data set [2] of 283 ± 6.7 µM. Moreover, in data set [3], the IC50 came to 94 ± 4.2 µM and the “Selectivity index (SI)” value worked out at 3.00.

In the case of `OO` [Compound H2O2, reference compound], the increase in lipoperoxidation in data set [5] was 3.6 fold. Further, in data set [6], the “increase in the production of ROS” value was 3.5 fold.

`O=Cc1ccc(-c2ccc(C#CCCO)s2)s1` [Compound 2, 5′‐(4‐hydroxy‐but‐1‐ynyl)‐[2,2′]bithiophenyl‐5‐carbaldehyde] came in with a CC50 at 48 h in data set [2] of 198 ± 3.9 µM. In addition, in data set [3], the IC50 was determined as 25.1 ± 0.8 µM and the “Selectivity index (SI)” value was determined as 7.90.

`CC(C)(O)C#Cc1ccc(-c2ccc(/C=N/NC(N)=S)s2)s1` [Compound 3d]: in data set [2], half-maximal cytotoxicity (CC50 at 48 h) was put at 220 ± 3.8 µM. In data set [3], the 50% inhibitory concentration (IC50) turned out to be 39.5 ± 5.1 µM and the “Selectivity index (SI)” value was 5.56.

With `CCCCN=Cc1ccc(-c2ccc(C#CCCO)s2)s1` [Compound 2b], in data set [2], the CC50 at 48 h worked out at 274 ± 5.2 µM. Besides, in data set [3], the IC50 is 48.5 ± 4.2 µM and the “Selectivity index (SI)” value worked out at 5.65.

Compound `CC(C)N=Cc1ccc(-c2ccc(C#CC(C)(C)O)s2)s1` [Compound 3a] showed a CC50 at 48 h in data set [2] of 281 ± 6.2 µM. Besides, in data set [3], the IC50 amounted to 49.5 ± 3.1 µM and the “Selectivity index (SI)” value was found to be 5.68.

On to `N#CC(C#N)=NNc1cccc(Cl)c1` [CCCP, carbonyl cyanide m‐chlorophenylhydrazone, reference compound], for which the “Mitochondrial potential: Average (Median)” value in data set [7] (positive control 100 μM, Rh123 fluorescence) is reported as 6.38. Moreover, in data set [7] (positive control, 100 μM), the “reduction in the mitochondrial membrane potential” value came out at 342.8 fold.

On to `CCCCCCCCCCCCCCCCOP(=O)([O-])OCC[N+](C)(C)C` [Miltefosine, miltefosine, reference compound], for which the “increase of cells in sub-G0 phase compared with the untreated control” value in data set [8] came out at 12.33 fold.
